Measurements published in patent publication US9708314B2, “Heterocyclic amide compound” (NISSAN CHEMICAL INDUSTRIES, LTD., priority 2013, dated 2017).

Tests used:
Assay type in all cases: in vivo
[1] = test system: Echinochloa crus-galli var. crus-galli; test: Test Example 3: herbicidal effect by application to foliage (Wagner pot, water depth 0.1-0.5 cm); settings: Nineteenth Table; application to foliage; application herbicide amount 320 g/ha
Procedure, shortened: (§1)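 Alluvial soil in 1/10000 are Wagner pots, sown and grown 14 days in a 25–30 °C greenhouse. An emulsifiable concentrate diluted in water to the set dose (g/ha) was sprayed on stems and leaves. Effect scored three weeks later on a 0–5 scale: 5 = ≥90% herbicidal ratio, 0 = ≤5%.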

Cyperus difformis = test: as above; settings: Nineteenth Table; application to foliage; application herbicide amount 320 g/ha
Procedure, shortened: as §1

Leptochloa chinensis = test: as above; settings: Nineteenth Table; application to foliage; application herbicide amount 320 g/ha
Procedure, shortened: as §1

Amaranthus retroflexus = test: Test Example 4: herbicidal effect by application to foliage (diluvial soil, plastic box); settings: application to foliage, 320 g/ha
Procedure, shortened: (§2)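 Seeds sown in sterilized diluvial soil, covered ~1.5 cm, grown 14 days in greenhouse at 25° C. to 30° C. Emulsion formulation diluted in water to set rate (g/ha) and sprayed onto stems and leaves. Effect scored visually 3 weeks later on 0–5 scale (5 = ≥90% herbicidal ratio, 0 = ≤5%).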

Veronica persica = test: as above; settings: application to foliage, 320 g/ha
Procedure, shortened: as §2

Setaria viridis = test: as above; settings: application to foliage, 320 g/ha
Procedure, shortened: as §2

Avena fatua = test: as above; settings: application to foliage, 320 g/ha
Procedure, shortened: as §2

Lolium multiflorum Lam. = test: as above; settings: application to foliage, 320 g/ha
Procedure, shortened: as §2

Alopecurus myosuroides = test: as above; settings: application to foliage, 320 g/ha
Procedure, shortened: as §2

Abutilon theophrasti = test: as above; settings: application to foliage, 320 g/ha
Procedure, shortened: as §2

Chenopodium album = test: as above; settings: application to foliage, 320 g/ha
Procedure, shortened: as §2

[2] = test system: Echinochloa crus-galli var. crus-galli; test: as above; settings: application to foliage, 320 g/ha
Procedure, shortened: as §2

Apera spica-venti. = test: as above; settings: application to foliage, 320 g/ha
Procedure, shortened: as §2

Digitaria ciliaris = test: as above; settings: application to foliage, 320 g/ha
Procedure, shortened: as §2

Galium spurium = test: as above; settings: application to foliage, 320 g/ha
Procedure, shortened: as §2

Stellaria media = test: as above; settings: application to foliage, 320 g/ha
Procedure, shortened: as §2

[3] = test system: directly sowed Oryza sativa; test: Test Example 3: effect on crop by application to foliage (Wagner pot, water depth 0.1-0.5 cm); settings: Nineteenth Table; application to foliage; application herbicide amount 320 g/ha
Procedure, shortened: as §1

Structure (SMILES) | H (herbicidal effect grade) [1] | E (herbicidal effect grade) (Cyperus difformis) | D (herbicidal effect grade) (Leptochloa chinensis) | herbicidal effect, N (Amaranthus retroflexus) (Amaranthus retroflexus) | herbicidal effect, R (Veronica persica) (Veronica persica) | herbicidal effect, G (Setaria viridis) (Setaria viridis) | herbicidal effect, I (Avena fatua) (Avena fatua) | herbicidal effect, K (Lolium multiflorum Lam.) (Lolium multiflorum Lam.) | herbicidal effect, J (Alopecurus myosuroides) (Alopecurus myosuroides) | herbicidal effect, M (Abutilon theophrasti) (Abutilon theophrasti) | herbicidal effect, O (Chenopodium album) (Chenopodium album) | herbicidal effect, H (Echinochloa crus-galli var. crus-galli) [2] | herbicidal effect, L (Apera spica-venti.) (Apera spica-venti.) | herbicidal effect, F (Digitaria ciliaris) (Digitaria ciliaris) | herbicidal effect, Q (Galium spurium) (Galium spurium) | herbicidal effect, P (Stellaria media) (Stellaria media) | b (effect on crop grade) [3]
Cn1nnnc1NC(=O)c1ccc(C(F)(F)F)n2c(SCc3ccccc3)nnc12 [2-076] | 5 (Herbicidal ratio of 90% or more (almost completely withered)) | 4 (Herbicidal ratio of 70% or more and less than 90%) | 4 (Herbicidal ratio of 70% or more and less than 90%) | 5 (Herbicidal ratio of 90% or more (almost completely withered)) | 5 (Herbicidal ratio of 90% or more (almost completely withered)) | 3 (Herbicidal ratio of 40% or more and less than 70%) | 1 (Herbicidal ratio of 5% or more and less than 20%) | 1 (Herbicidal ratio of 5% or more and less than 20%) | 1 (Herbicidal ratio of 5% or more and less than 20%) | 4 (Herbicidal ratio of 70% or more and less than 90%) | 5 (Herbicidal ratio of 90% or more (almost completely withered)) | 5 (Herbicidal ratio of 90% or more (almost completely withered)) | 2 (Herbicidal ratio of 20% or more and less than 40%) | 3 (Herbicidal ratio of 40% or more and less than 70%) | 3 (Herbicidal ratio of 40% or more and less than 70%) | 5 (Herbicidal ratio of 90% or more (almost completely withered)) | 1 (Herbicidal ratio of 5% or more and less than 20%)
COc1ccc(CSc2nnc3c(C(=O)Nc4nnnn4C)ccc(C(F)(F)F)n23)cc1 [2-077] | 2 (Herbicidal ratio of 20% or more and less than 40%) | 3 (Herbicidal ratio of 40% or more and less than 70%) | 4 (Herbicidal ratio of 70% or more and less than 90%) | 5 (Herbicidal ratio of 90% or more (almost completely withered)) | 3 (Herbicidal ratio of 40% or more and less than 70%) | 2 (Herbicidal ratio of 20% or more and less than 40%) | 0 (Herbicidal ratio of 5% or less (almost no effect)) | 0 (Herbicidal ratio of 5% or less (almost no effect)) | 0 (Herbicidal ratio of 5% or less (almost no effect)) | 4 (Herbicidal ratio of 70% or more and less than 90%) | 5 (Herbicidal ratio of 90% or more (almost completely withered)) | 4 (Herbicidal ratio of 70% or more and less than 90%) | 0 (Herbicidal ratio of 5% or less (almost no effect)) | 4 (Herbicidal ratio of 70% or more and less than 90%) | 3 (Herbicidal ratio of 40% or more and less than 70%) | 4 (Herbicidal ratio of 70% or more and less than 90%) | 0 (Herbicidal ratio of 5% or less (almost no effect))
Cn1nnnc1NC(=O)c1ccc(C(F)(F)F)n2c(N3CCSCC3)nnc12 [2-078] | 5 (Herbicidal ratio of 90% or more (almost completely withered)) | 3 (Herbicidal ratio of 40% or more and less than 70%) | 5 (Herbicidal ratio of 90% or more (almost completely withered)) | 5 (Herbicidal ratio of 90% or more (almost completely withered)) | 5 (Herbicidal ratio of 90% or more (almost completely withered)) | 5 (Herbicidal ratio of 90% or more (almost completely withered)) | 3 (Herbicidal ratio of 40% or more and less than 70%) | 4 (Herbicidal ratio of 70% or more and less than 90%) | 4 (Herbicidal ratio of 70% or more and less than 90%) | 5 (Herbicidal ratio of 90% or more (almost completely withered)) | 5 (Herbicidal ratio of 90% or more (almost completely withered)) | 5 (Herbicidal ratio of 90% or more (almost completely withered)) | 5 (Herbicidal ratio of 90% or more (almost completely withered)) | 5 (Herbicidal ratio of 90% or more (almost completely withered)) | 4 (Herbicidal ratio of 70% or more and less than 90%) | 5 (Herbicidal ratio of 90% or more (almost completely withered)) | 4 (Herbicidal ratio of 70% or more and less than 90%)
COCCN(C)c1nnc2c(C(=O)Nc3nnnn3C)ccc(C(F)(F)F)n12 [2-079] | 5 (Herbicidal ratio of 90% or more (almost completely withered)) | 5 (Herbicidal ratio of 90% or more (almost completely withered)) | 5 (Herbicidal ratio of 90% or more (almost completely withered)) | 5 (Herbicidal ratio of 90% or more (almost completely withered)) | 5 (Herbicidal ratio of 90% or more (almost completely withered)) | 5 (Herbicidal ratio of 90% or more (almost completely withered)) | 3 (Herbicidal ratio of 40% or more and less than 70%) | 2 (Herbicidal ratio of 20% or more and less than 40%) | 4 (Herbicidal ratio of 70% or more and less than 90%) | 5 (Herbicidal ratio of 90% or more (almost completely withered)) | 5 (Herbicidal ratio of 90% or more (almost completely withered)) | 5 (Herbicidal ratio of 90% or more (almost completely withered)) | 5 (Herbicidal ratio of 90% or more (almost completely withered)) | 5 (Herbicidal ratio of 90% or more (almost completely withered)) | 4 (Herbicidal ratio of 70% or more and less than 90%) | 5 (Herbicidal ratio of 90% or more (almost completely withered)) | 5 (Herbicidal ratio of 90% or more (almost completely withered))
CSCCNc1nnc2c(C(=O)Nc3nnnn3C)ccc(C(F)(F)F)n12 [2-080] | 4 (Herbicidal ratio of 70% or more and less than 90%) | 5 (Herbicidal ratio of 90% or more (almost completely withered)) | 5 (Herbicidal ratio of 90% or more (almost completely withered)) | 5 (Herbicidal ratio of 90% or more (almost completely withered)) | 5 (Herbicidal ratio of 90% or more (almost completely withered)) | 3 (Herbicidal ratio of 40% or more and less than 70%) | 1 (Herbicidal ratio of 5% or more and less than 20%) | 0 (Herbicidal ratio of 5% or less (almost no effect)) | 1 (Herbicidal ratio of 5% or more and less than 20%) | 5 (Herbicidal ratio of 90% or more (almost completely withered)) | 5 (Herbicidal ratio of 90% or more (almost completely withered)) | 5 (Herbicidal ratio of 90% or more (almost completely withered)) | 3 (Herbicidal ratio of 40% or more and less than 70%) | 5 (Herbicidal ratio of 90% or more (almost completely withered)) | 4 (Herbicidal ratio of 70% or more and less than 90%) | 4 (Herbicidal ratio of 70% or more and less than 90%) | 3 (Herbicidal ratio of 40% or more and less than 70%)
